Source: patent US12139499B2, “Heteroaryl compounds for treating Huntington's disease” (PTC THERAPEUTICS, INC., priority 2018, dated 2024)
pIC50: −log10 of the molar value.

tested on: Endogenous Huntingtin Protein; test: Endogenous Huntingtin Protein Assay (ELISA-based MSD electrochemiluminescence); format: cell-based; details: Table 1
How it was run: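 Sandwich MSD electrochemiluminescence immunoassay. Capture used MW1 (expanded polyglutamine) or MAB2166 antibody coated at 1 μg/mL overnight at 4 °C. Samples were bound overnight at 4 °C, then a rabbit monoclonal detection antibody and SULFO-TAG anti-rabbit, each at 0.25 μg/mL, were applied for 1 h at room temperature.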

| SMILES | pIC50 |
| --- | --- |
| CN1[C@@H]2CC[C@H]1C[C@H](Nc1nc3cnc(-c4cc(F)c5nn(C)cc5c4)cc3s1)C2 [Compound 246, 6-(7-fluoro-2-methyl-2H-indazol-5-yl)-N-[(3-exo)-8-methyl-8-azabicyclo[3.2.1]oct-3-yl][1,3]thiazolo[4,5-c]pyridin-2-amine] | 5.52 to 6.00 |
| Cc1cn2cc(-c3cc4sc(N[C@@H]5C[C@H]6CC[C@@H](C5)N6C)nc4cn3)cc(F)c2n1 [Compound 247, 6-(8-fluoro-2-methylimidazo[1,2-a]pyridin-6-yl)-N-[(3-exo)-8-methyl-8-azabicyclo[3.2.1]oct-3-yl][1,3]thiazolo[4,5-c]pyridin-2-amine] | 6.30 to 7.00 |
| Cc1cn2nc(-c3cc(F)c4nc(N(C)C5CNC5)sc4c3)cc(C)c2n1 [Compound 248, N-(azetidin-3-yl)-6-(2,8-dimethylimidazo[1,2-b]pyridazin-6-yl)-4-fluoro-N-methyl-1,3-benzothiazol-2-amine] | 6.30 to 7.00 |
| Cc1cc2nc(-c3cc(F)c4nc(C5CCNCC5)sc4c3)ccn2n1 [Compound 249, 5-[4-fluoro-2-(piperidin-4-yl)-1,3-benzothiazol-6-yl]-2-methylpyrazolo[1,5-a]pyrimidine] | ≥ 7.00 |
| Cc1cc2nc(-c3cc(F)c4nc(N(C)C5CCNCC5)sc4c3)ccn2n1 [Compound 250, 4-fluoro-N-methyl-6-(2-methylpyrazolo[1,5-a]pyrimidin-5-yl)-N-(piperidin-4-yl)-1,3-benzothiazol-2-amine] | 6.30 to 7.00 |
| Cc1cn2cc(-c3cc4sc(N(C)C5CC6CCCC(C5)N6)nc4cn3)cc(C#N)c2n1 (centres unmarked) [Compound 251, 6-{2-[9-azabicyclo[3.3.1]non-3-yl(methyl)amino][1,3]thiazolo[4,5-c]pyridin-6-yl}-2-methylimidazo[1,2-a]pyridine-8-carbonitrile] | ≥ 7.00 |
| CN(c1nc2cnc(-c3cc(C#N)c4nn(C)cc4c3)cc2s1)C1CC2CCCC(C1)N2 (centres unmarked) [Compound 252, 5-{2-[9-azabicyclo[3.3.1]non-3-yl(methyl)amino][1,3]thiazolo[4,5-c]pyridin-6-yl}-2-methyl-2H-indazole-7-carbonitrile] | ≥ 7.00 |
| CN(c1nc2cnc(-c3cc(F)c4nn(C)cc4c3)cc2s1)C1CC2CCCC(C1)N2 (centres unmarked) [Compound 253, N-(9-azabicyclo[3.3.1]non-3-yl)-6-(7-fluoro-2-methyl-2H-indazol-5-yl)-N-methyl[1,3]thiazolo[4,5-c]pyridin-2-amine] | ≥ 7.00 |
| Cc1cn2cc(-c3ncc4nc(N(C)C5CC6(C)CC[C@](C)(C5)N6)sc4n3)cc(C#N)c2n1 (stereo partly drawn) [Compound 255, 6-(2-{[(1R)-1,5-dimethyl-8-azabicyclo[3.2.1]oct-3-yl](methyl)amino}[1,3]thiazolo[5,4-d]pyrimidin-5-yl)-2-methylimidazo[1,2-a]pyridine-8-carbonitrile] | ≥ 7.00 |
| Cc1cn2cc(-c3ncc4nc(N(C)C5C[C@H]6CCC[C@@H](C5)N6)sc4n3)cc(C#N)c2n1 (stereo partly drawn) [Compound 256, 6-{2-[(1R,5S)-9-azabicyclo[3.3.1]non-3-yl(methyl)amino][1,3]thiazolo[5,4-d]pyrimidin-5-yl}-2-methylimidazo[1,2-a]pyridine-8-carbonitrile] | ≥ 7.00 |
| Cc1cn2cc(-c3ncc4nc(N(C)C5C[C@H]6CCC[C@@H](C5)N6)sc4n3)cc(F)c2n1 (stereo partly drawn) [Compound 257, N-[(1R,5S)-9-azabicyclo[3.3.1]non-3-yl]-5-(8-fluoro-2-methylimidazo[1,2-a]pyridin-6-yl)-N-methyl[1,3]thiazolo[5,4-d]pyrimidin-2-amine] | ≥ 7.00 |
| Cc1cn2nc(-c3cc(F)c4nc(N(C)[C@H]5CCN[C@@H](C)C5)sc4c3)ccc2n1 [Compound 258, 4-fluoro-N-methyl-6-(2-methylimidazo[1,2-b]pyridazin-6-yl)-N-[(2S,4S)-2-methylpiperidin-4-yl]-1,3-benzothiazol-2-amine] | ≥ 7.00 |
| Cc1cn2nc(-c3cc(F)c4nc(N(C)[C@@H]5CCN[C@@H](C)C5)sc4c3)ccc2n1 [Compound 259, 4-fluoro-N-methyl-6-(2-methylimidazo[1,2-b]pyridazin-6-yl)-N-[(2S,4R)-2-methylpiperidin-4-yl]-1,3-benzothiazol-2-amine] | ≥ 7.00 |
| Cc1cn2cc(-c3cc4sc(N(C)C5CC6CCCC(C5)N6)nc4cn3)ccc2n1 (centres unmarked) [Compound 260, N-(9-azabicyclo[3.3.1]non-3-yl)-N-methyl-6-(2-methylimidazo[1,2-a]pyridin-6-yl)[1,3]thiazolo[4,5-c]pyridin-2-amine] | ≥ 7.00 |
| Cc1cn2cc(-c3cc4sc(N(C)C5CC6CCCC(C5)N6)nc4cn3)cc(C)c2n1 (centres unmarked) [Compound 261, N-(9-azabicyclo[3.3.1]non-3-yl)-6-(2,8-dimethylimidazo[1,2-a]pyridin-6-yl)-N-methyl[1,3]thiazolo[4,5-c]pyridin-2-amine] | ≥ 7.00 |
| CN(c1nc2cnc(-c3ccc4nn(C)cc4c3)cc2s1)C1CC2CCCC(C1)N2 (centres unmarked) [Compound 262, N-(9-azabicyclo[3.3.1]non-3-yl)-N-methyl-6-(2-methyl-2H-indazol-5-yl)[1,3]thiazolo[4,5-c]pyridin-2-amine] | ≥ 7.00 |

| SMILES | pIC50 |
| --- | --- |
| Cc1cc(-c2cc3sc(N(C)C4CC5CCCC(C4)N5)nc3cn2)cc2cn(C)nc12 (centres unmarked) [Compound 263, N-(9-azabicyclo[3.3.1]non-3-yl)-6-(2,7-dimethyl-2H-indazol-5-yl)-N-methyl[1,3]thiazolo[4,5-c]pyridin-2-amine] | ≥ 7.00 |
| COc1cc(-c2cc3sc(N(C)C4CC5CCCC(C4)N5)nc3cn2)cc2cn(C)nc12 (centres unmarked) [Compound 264, N-(9-azabicyclo[3.3.1]non-3-yl)-6-(7-methoxy-2-methyl-2H-indazol-5-yl)-N-methyl[1,3]thiazolo[4,5-c]pyridin-2-amine] | ≥ 7.00 |
| Cc1cn2cc(-c3ncc4nc(N(C)C5CC(C)(C)NC(C)(C)C5)sc4n3)cc2c(C)n1 [Compound 265, 5-(1,3-dimethylpyrrolo[1,2-a]pyrazin-7-yl)-N-methyl-N-(2,2,6,6-tetramethylpiperidin-4-yl)[1,3]thiazolo[5,4-d]pyrimidin-2-amine] | ≥ 7.00 |
| Cc1cn2cc(-c3cc4sc(NC5CC(C)(C)N(C)C(C)(C)C5)nc4cn3)cc(C#N)c2n1 [Compound 266, 2-methyl-6-{2-[(1,2,2,6,6-pentamethylpiperidin-4-yl)amino][1,3]thiazolo[4,5-c]pyridin-6-yl}imidazo[1,2-a]pyridine-8-carbonitrile] | 6.30 to 7.00 |
| Cc1cn2cc(-c3cc4sc(NC5CC(C)(C)N(C)C(C)(C)C5)nc4cn3)cc(F)c2n1 [Compound 267, 6-(8-fluoro-2-methylimidazo[1,2-a]pyridin-6-yl)-N-(1,2,2,6,6-pentamethylpiperidin-4-yl)[1,3]thiazolo[4,5-c]pyridin-2-amine] | 6.30 to 7.00 |
| CN1C(C)(C)CC(Nc2nc3cnc(-c4cc(C#N)c5nn(C)cc5c4)cc3s2)CC1(C)C [Compound 268, 2-methyl-5-{2-[(1,2,2,6,6-pentamethylpiperidin-4-yl)amino][1,3]thiazolo[4,5-c]pyridin-6-yl}-2H-indazole-7-carbonitrile] | 6.30 to 7.00 |
| CN1C(C)(C)CC(Nc2nc3cnc(-c4cc(F)c5nn(C)cc5c4)cc3s2)CC1(C)C [Compound 269, 6-(7-fluoro-2-methyl-2H-indazol-5-yl)-N-(1,2,2,6,6-pentamethylpiperidin-4-yl)[1,3]thiazolo[4,5-c]pyridin-2-amine] | 6.30 to 7.00 |
| Cc1cn2cc(-c3cc4sc(N(C)C5CC6CCCC(C5)N6C)nc4cn3)cc(C#N)c2n1 (centres unmarked) [Compound 270, 2-methyl-6-{2-[methyl(9-methyl-9-azabicyclo[3.3.1]non-3-yl)amino][1,3]thiazolo[4,5-c]pyridin-6-yl}imidazo[1,2-a]pyridine-8-carbonitrile] | ≥ 7.00 |
| Cc1cn2cc(-c3cc4sc(N(C)C5CC6CCCC(C5)N6C)nc4cn3)cc(F)c2n1 (centres unmarked) [Compound 271, 6-(8-fluoro-2-methylimidazo[1,2-a]pyridin-6-yl)-N-methyl-N-(9-methyl-9-azabicyclo[3.3.1]non-3-yl)[1,3]thiazolo[4,5-c]pyridin-2-amine] | 6.30 to 7.00 |
| CN(c1nc2cnc(-c3cc(C#N)c4nn(C)cc4c3)cc2s1)C1CC2CCCC(C1)N2C (centres unmarked) [Compound 272, 2-methyl-5-{2-[methyl(9-methyl-9-azabicyclo[3.3.1]non-3-yl)amino][1,3]thiazolo[4,5-c]pyridin-6-yl}-2H-indazole-7-carbonitrile] | 6.30 to 7.00 |
| CN(c1nc2cnc(-c3cc(F)c4nn(C)cc4c3)cc2s1)C1CC2CCCC(C1)N2C (centres unmarked) [Compound 273, 6-(7-fluoro-2-methyl-2H-indazol-5-yl)-N-methyl-N-(9-methyl-9-azabicyclo[3.3.1]non-3-yl)[1,3]thiazolo[4,5-c]pyridin-2-amine] | 6.00 to 6.30 |
| CN(c1nc2ncc(-c3ccc(-c4cn[nH]c4)cc3O)nc2s1)C1CCNCC1 [Compound 274, 2-{2-[methyl(piperidin-4-yl)amino][1,3]thiazolo[4,5-b]pyrazin-6-yl}-5-(1H-pyrazol-yl)phenol] | ≥ 7.00 |
| Cc1nc2c(C#N)cc(-c3ncc4nc(N(C)C5CC(C)(C)NC(C)(C)C5)sc4n3)cc2o1 [Compound 275, 2-methyl-6-{2-[methyl(2,2,6,6-tetramethylpiperidin-4-yl)amino][1,3]thiazolo[5,4-d]pyrimidin-5-yl}-1,3-benzoxazole-4-carbonitrile] | ≥ 7.00 |
| Cc1cn2cc(-c3ccc4nc(N(C)C5CC6CCC(C5)N6)sc4n3)cc(C#N)c2n1 (stereo not drawn) [Compound 276, 6-{2-[(3-exo)-8-azabicyclo[3.2.1]oct-3-yl(methyl)amino][1,3]thiazolo[5,4-b]pyridin-5-yl}-2-methylimidazo[1,2-a]pyridine-8-carbonitrile] | ≥ 7.00 |
| Cc1cn2cc(-c3ccc4nc(N(C)C5CC6CCC(C5)N6)sc4n3)cc(F)c2n1 (stereo not drawn) [Compound 277, N-[(3-exo)-8-azabicyclo[3.2.1]oct-3-yl]-5-(8-fluoro-2-methylimidazo[1,2-a]pyridin-6-yl)-N-methyl[1,3]thiazolo[5,4-b]pyridin-2-amine] | 6.30 to 7.00 |
| CN(c1nc2ccc(-c3cc(C#N)c4nn(C)cc4c3)nc2s1)C1CC2CCC(C1)N2 (stereo not drawn) [Compound 278, 5-{2-[(3-exo)-8-azabicyclo[3.2.1]oct-3-yl(methyl)amino][1,3]thiazolo[5,4-b]pyridin-5-yl}-2-methyl-2H-indazole-7-carbonitrile] | ≥ 7.00 |
